The values that follow are results of earlier work, collected in patent publication US20040101478A1, “In vivo methods of determining activity of receptor-type kinase inhibitors” (priority 2003, published 2004).

The structures appear in SMILES notation.

The data set concerns the target KDR kinase (Homo sapiens, UniProt P35968). To be noted: Kasahara et al., 2000, J. Clin. Invest. 106: 1311-1319; cited from earlier work.

Sequence of KDR kinase (P35968 20-1356): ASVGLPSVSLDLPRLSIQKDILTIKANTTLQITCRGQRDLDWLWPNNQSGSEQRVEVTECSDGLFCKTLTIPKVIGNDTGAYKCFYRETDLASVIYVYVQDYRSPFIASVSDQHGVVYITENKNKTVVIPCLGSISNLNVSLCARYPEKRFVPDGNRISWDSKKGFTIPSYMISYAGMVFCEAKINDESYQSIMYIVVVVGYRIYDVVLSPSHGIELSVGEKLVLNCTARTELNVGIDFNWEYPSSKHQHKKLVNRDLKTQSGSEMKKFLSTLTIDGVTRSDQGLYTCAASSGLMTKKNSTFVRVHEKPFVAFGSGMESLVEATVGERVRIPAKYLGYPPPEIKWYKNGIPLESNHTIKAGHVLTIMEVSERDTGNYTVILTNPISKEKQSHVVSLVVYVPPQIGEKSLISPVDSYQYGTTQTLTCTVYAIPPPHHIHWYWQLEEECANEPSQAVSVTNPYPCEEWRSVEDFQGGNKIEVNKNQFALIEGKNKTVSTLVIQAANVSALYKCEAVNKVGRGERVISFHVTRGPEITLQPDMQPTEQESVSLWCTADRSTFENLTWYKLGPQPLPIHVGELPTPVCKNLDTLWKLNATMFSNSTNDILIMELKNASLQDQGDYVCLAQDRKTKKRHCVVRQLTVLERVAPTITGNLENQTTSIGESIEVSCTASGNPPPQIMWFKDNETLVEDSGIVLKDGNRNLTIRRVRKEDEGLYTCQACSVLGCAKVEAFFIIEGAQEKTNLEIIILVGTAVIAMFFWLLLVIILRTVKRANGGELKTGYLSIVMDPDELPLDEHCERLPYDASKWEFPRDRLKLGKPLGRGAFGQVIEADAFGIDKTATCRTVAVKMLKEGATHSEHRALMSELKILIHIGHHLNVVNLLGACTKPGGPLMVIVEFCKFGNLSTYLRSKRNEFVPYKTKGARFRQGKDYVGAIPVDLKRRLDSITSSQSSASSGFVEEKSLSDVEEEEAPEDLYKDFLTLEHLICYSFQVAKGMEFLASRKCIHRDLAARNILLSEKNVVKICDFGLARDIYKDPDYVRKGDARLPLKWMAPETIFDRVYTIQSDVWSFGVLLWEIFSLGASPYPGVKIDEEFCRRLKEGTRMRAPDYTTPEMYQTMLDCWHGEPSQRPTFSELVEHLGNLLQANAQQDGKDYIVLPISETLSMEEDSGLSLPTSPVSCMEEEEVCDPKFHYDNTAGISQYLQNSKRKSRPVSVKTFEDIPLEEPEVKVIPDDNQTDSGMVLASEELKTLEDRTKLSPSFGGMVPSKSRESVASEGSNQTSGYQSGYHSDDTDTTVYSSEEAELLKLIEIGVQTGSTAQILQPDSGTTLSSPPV

As to `Cc1cc(C)c(/C=C2\C(=O)Nc3ccccc32)[nH]1` [SU5416], the “inhibition of VEGF-induced phosphorylation” value is recorded as “inhibition of VEGF-induced phosphorylation”.
